Data: PMC12118597 (Science Advances, 2025)
Where two headings read alike, the source gives them in different places.

Target: SARS-CoV-2 NSP3 macrodomain (Mac1) (Severe acute respiratory syndrome coronavirus 2, UniProt P0DTD1)
Format: binding
Conditions: for PanDDA run, overall: Hit / PanDDA run, overall: Modeled / PanDDA run, DMSO background map: 1-BDC / PanDDA run, DMSO background map: Hit / PanDDA run, overall: Modeling comment / PanDDA run, TFA/DMSO background map: 1-BDC / PanDDA run, TFA/DMSO background map: Hit: crystal soak 10 mM; for PanDDA run, overall: Hit / PanDDA run, overall: Modeled / PanDDA run, overall: Modeling comment: P43 crystal form; for Total number of conformations: ligand conformations modeled in the crystal structure; for 2*(1-BDC) (%): occupancy estimate from PanDDA
[1] = PanDDA background density correction factor
[2] = TRUE = crystal structure with ligand obtained
[3] = refined crystallographic occupancy
[4] = site of ligand in X-ray crystal structure
[5] = ligand-bound crystal structure obtained (TRUE)
[6] = site occupied in X-ray crystal structure

SMILES | Occupancy difference (refined_occupancy - 2*(1-BDC)) | 1-BDC [1] | X-ray crystal structure [2] | PanDDA run, overall: Hit | PanDDA run, overall: Modeled | PanDDA run, DMSO background map: 1-BDC | PanDDA run, DMSO background map: Hit | Total number of conformations | 2*(1-BDC) (%) | Refined ligand occupancy (%) [3] [%] | Binding site [4] | 1-BDC (PanDDA background density correction, 1-BDC) | Refined ligand occupancy (%) (crystallographic refinement) | X-ray crystal structure [5] | Binding site [6] | PanDDA run, overall: Modeling comment | PanDDA run, TFA/DMSO background map: 1-BDC | PanDDA run, TFA/DMSO background map: Hit
Cn1cc(CC(CO)Nc2ncnc3[nH]ccc23)cn1 (stereo not shown) [AVI-3657] | 0 | 0.15 | TRUE | TRUE | TRUE | 0.15 | TRUE | 1 | 30 | 30 | Adenosine | – | – | – | – | – | – | –
OCC(CC1OCCO1)Nc1ncnc2[nH]ccc12 (stereo not shown) [AVI-3658] | 0 | 0.2 | TRUE | TRUE | TRUE | 0.2 | TRUE | 1 | 40 | 40 | Adenosine | – | – | – | – | – | – | –
OCC(Nc1ncnc2[nH]ccc12)c1ccco1 (stereo not shown) [AVI-3659] | 0 | 0.16 | TRUE | TRUE | TRUE | 0.16 | TRUE | 1 | 32 | 32 | Adenosine | – | – | – | – | – | – | –
OCC(CC1CCCO1)Nc1ncnc2[nH]ccc12 (stereo not shown) [AVI-3660] | 0 | 0.23 | TRUE | TRUE | TRUE | 0.23 | TRUE | 1 | 46 | 46 | Adenosine | – | – | – | – | – | – | –
OC1CCN(c2ncnc3[nH]ccc23)C1 (stereo not shown) [AVI-3661] | – | – | – | TRUE | TRUE | 0.15 | TRUE | – | 30 | – | – | 0.15 | 40 | TRUE | Adenosine | – | – | –
OCC(CC1CC1)Nc1ncnc2[nH]ccc12 (stereo not shown) [AVI-3662] | 0 | 0.14 | TRUE | TRUE | TRUE | 0.14 | TRUE | 1 | 28 | 28 | Adenosine | – | – | – | – | Distal site, weak density, not modeled | – | –
OCC(CC1CCOC1)Nc1ncnc2[nH]ccc12 (stereo not shown) [AVI-3665] | 0 | 0.17 | TRUE | TRUE | TRUE | 0.17 | TRUE | 1 | 34 | 34 | Adenosine | – | – | – | – | – | – | –
CCC(Nc1ncnc2[nH]ccc12)C(C)(C)O (stereo not shown) [AVI-3667] | 0 | 0.14 | TRUE | TRUE | TRUE | 0.14 | TRUE | 1 | 28 | 28 | Adenosine | – | – | – | – | – | – | –
CC(C)CCC(CO)Nc1ncnc2[nH]ccc12.O=C(O)C(F)(F)F (stereo not shown) [AVI-3668] | – | – | – | TRUE | – | 0.15 | TRUE | – | – | – | – | – | – | – | – | Weak density, not modeled | 0.09 | TRUE
OCC(Cc1nccs1)Nc1ncnc2[nH]ccc12 (stereo not shown) [AVI-3673] | 0 | 0.19 | TRUE | TRUE | TRUE | 0.19 | TRUE | 1 | 38 | 38 | Adenosine | – | – | – | – | – | – | –
Cc1ccccc1CC(CO)Nc1ncnc2[nH]ccc12 (stereo not shown) [AVI-3674] | 0 | 0.19 | TRUE | TRUE | TRUE | 0.19 | TRUE | 1 | 38 | 38 | Adenosine | – | – | – | – | – | – | –
O=C(O)C(F)(F)F.OCC(CC1CCOCC1)Nc1ncnc2[nH]ccc12 (stereo not shown) [AVI-3676] | – | – | – | – | – | – | – | – | – | – | – | – | – | – | – | TFA only | – | –
OCC(Nc1ncnc2[nH]ccc12)C1CCOC1 (stereo not shown) [AVI-3679] | 0 | 0.16 | TRUE | TRUE | TRUE | 0.16 | TRUE | 1 | 32 | 32 | Adenosine | – | – | – | – | – | – | –
O=C(O)C(F)(F)F.OCC12CC(CN1c1ncnc3[nH]ccc13)C2 [AVI-3681] | -14 | 0.22 | – | TRUE | TRUE | 0.22 | TRUE | 1 | 44 | 30 | – | – | – | TRUE | Adenosine | Distal site, weak density, not modeled | – | –
Cc1ccc(CC(CO)Nc2ncnc3[nH]ccc23)cc1 (stereo not shown) [AVI-3683] | 20 | 0.15 | TRUE | TRUE | TRUE | 0.15 | TRUE | 2 | 30 | 50 | Adenosine | – | – | – | – | – | – | –
Cc1ccc(CC(CO)Nc2ncnc3[nH]ccc23)cc1C (stereo not shown) [AVI-3684] | 20 | 0.15 | TRUE | TRUE | TRUE | 0.15 | TRUE | 2 | 30 | 50 | Adenosine | – | – | – | – | – | – | –
OCC1CCCN1c1ncnc2[nH]ccc12 (stereo not shown) [AVI-3685] | 20 | 0.25 | – | TRUE | TRUE | 0.25 | TRUE | 1 | 50 | 70 | – | – | – | TRUE | Adenosine | – | – | –
OCC(Cc1ccc(I)cc1)Nc1ncnc2[nH]ccc12 (stereo not shown) [AVI-3686] | 0 | 0.2 | TRUE | TRUE | TRUE | 0.2 | TRUE | 2 | 40 | 40 | Adenosine | – | – | – | – | – | – | –
O=C(O)C(F)(F)F.OCC(Nc1ncnc2[nH]ccc12)C(O)C1CCCCC1 (stereo not shown) [AVI-3687] | – | – | – | TRUE | – | 0.15 | TRUE | – | – | – | – | – | – | – | – | Weak density, not modeled | 0.08 | TRUE
O=C(O)C(F)(F)F.OCC1(Nc2ncnc3[nH]ccc23)CC1 [AVI-3688] | 20 | 0.2 | TRUE | TRUE | TRUE | 0.2 | TRUE | 1 | 40 | 60 | Adenosine | – | – | – | – | – | – | –
OCC(CC1CCCCC1)Nc1ncnc2[nH]ccc12 (stereo not shown) [AVI-3690] | 0 | 0.12 | TRUE | TRUE | TRUE | 0.12 | TRUE | 1 | 24 | 24 | Adenosine | – | – | – | – | Weak density for alternative ligand conformation | – | –
OCC(CC1CCCC1)Nc1ncnc2[nH]ccc12 (stereo not shown) [AVI-3691] | -16 | 0.18 | TRUE | TRUE | TRUE | 0.18 | TRUE | 1 | 36 | 20 | Adenosine | – | – | – | – | – | – | –
